Data from US11519901B2, “Method for screening for cancer therapeutic agent” (THE UNIVERSITY OF TOKYO, priority 2015, dated 2022).
Where two headings read alike, the source gives them in different places.

Legend:
[1] = test system: HCC827 cell line; conditions: HCC827, Dox(4F)+, two days
Method: (§1) RT-PCR was performed using the following method. Using RNeasy Plus Mini kit (Qiagen, Hilden, Germany), the total RNA was isolated. Using Go-taq qPCR Master Mix (Promega, Madison, USA), quantitative real-time PCR analysis was performed. The transcription level was standardized based on β-actin or GAPDH value.
(§2) Using a combination of a cancer cell sensitive to a certain kind of anticancer agent and a cancer cell not sensitive to a certain kind of anticancer agent, an influence of a drug-specific cell on the reprogramming was examined. […] Two days later, RNA was extracted from the cells, and the expression levels of NANOG and GDF3 were measured by quantitative RT-PCR (FIG. 5A).

[2] = test system: HER2-amplified breast cancer cell line SK-BR3; assay: PODXL expression by RT-PCR in SK-BR3 introduced with reprogramming factor (4F); assay type: cell-based, human; conditions: 4F-introduced SK-BR3, treated with IC50 concentration of drug
Method: (§3) In FIG. 2, FIG. 2A is a schematic drawing describing a method of introducing reprogramming factor, MYOD1 or GFP and siRNA into MP-CCS-SY cell line. […] FIG. 2C is a schematic drawing describing introduction of a reprogramming factor into HCC827 or SK-BR3 cell line and a method of addition of each medicament.
as §1
(§4) Besides the above, an influence of the activation of oncogene signal on cell reprogramming was examined. Epithelial growth factor receptor (EGFR) mutated lung cancer cell line HCC827 and HER2-amplified breast cancer cell line SK-BR3 were used for the experiment. These cancer cell lines are sensitive to EGFR specific tyrosine kinase and HER2 tyrosine kinase inhibitor, respectively. […] Change of gene expression with or without introduction of 4F into HCC827 and SK-BR3 was examined by microarray analysis.

[3] = test system: EGFR mutated lung cancer cell line HCC827; assay: PODXL expression by RT-PCR in HCC827 introduced with reprogramming factor (4F); assay type: cell-based, human; conditions: 4F-introduced HCC827, treated with IC50 concentration of drug
Method: as §3, §1, §4

[4] = test system: EGFR mutation lung cancer cell line HCC827; conditions: stated as known; cited from earlier work
[5] = test system: SK-BR3 cell line; assay: Microarray analysis of gene expression change with or without 4F in SK-BR3; assay type: cell-based, human; conditions: SK-BR3 with or without 4F introduction
Text: as §3, §4

[6] = test system: SK-BR3 cell line; assay: NANOG and GDF3 expression by quantitative RT-PCR in 4F-induced SK-BR3; assay type: cell-based, human; conditions: SK-BR3, Dox(4F)+, two days
Method: as §1, §2

[7] = test system: HER2-amplified breast cancer cell line SK-BR3; conditions: stated as known; cited from earlier work
[8] = Imatinib 1 or 10 μM, 5-FU 10 or 50 μM (FIG. 5B legend)

## O=c1[nH]cc(F)c(=O)[nH]1 [5FU, 5-fluorouracil]
[1]; [8]
  expression of GDF3: did not promote
  expression of NANOG: did not promote
[2]
  expression of reprogramming marker PODXL: did not increase
[3]
  PODXL expression: did not increase

## CS(=O)(=O)CCNCc1ccc(-c2ccc3ncnc(Nc4ccc(OCc5cccc(F)c5)c(Cl)c4)c3c2)o1 [lapatinib]
[1]; 0.5 μM
  expression of GDF3: promoted
  expression of NANOG: promoted
[2]
  expression of reprogramming marker PODXL: promoted
[4]
  sensitivity of cell line to drug: sensitive
[5]
  change of gene expression (many genes including PODXL and NANOG), microarray: upregulated or downregulated
[6]; 0.05 μM
  expression of GDF3: promoted
  expression of NANOG: promoted
[6]; 0.5 μM
  expression of GDF3: promoted
  expression of NANOG: promoted
[7]
  sensitivity of cell line to drug: sensitive
